Data from ChEMBL document CHEMBL1201862, “PubChem BioAssay data set” (2004).
Calls of active or inactive are those of the source.

Columns and labels:
[1] = target: T1, Histone-lysine N-methyltransferase NSD2 (Homo sapiens, UniProt O96028); type: biochemical
T1 sequence (O96028 whole entry): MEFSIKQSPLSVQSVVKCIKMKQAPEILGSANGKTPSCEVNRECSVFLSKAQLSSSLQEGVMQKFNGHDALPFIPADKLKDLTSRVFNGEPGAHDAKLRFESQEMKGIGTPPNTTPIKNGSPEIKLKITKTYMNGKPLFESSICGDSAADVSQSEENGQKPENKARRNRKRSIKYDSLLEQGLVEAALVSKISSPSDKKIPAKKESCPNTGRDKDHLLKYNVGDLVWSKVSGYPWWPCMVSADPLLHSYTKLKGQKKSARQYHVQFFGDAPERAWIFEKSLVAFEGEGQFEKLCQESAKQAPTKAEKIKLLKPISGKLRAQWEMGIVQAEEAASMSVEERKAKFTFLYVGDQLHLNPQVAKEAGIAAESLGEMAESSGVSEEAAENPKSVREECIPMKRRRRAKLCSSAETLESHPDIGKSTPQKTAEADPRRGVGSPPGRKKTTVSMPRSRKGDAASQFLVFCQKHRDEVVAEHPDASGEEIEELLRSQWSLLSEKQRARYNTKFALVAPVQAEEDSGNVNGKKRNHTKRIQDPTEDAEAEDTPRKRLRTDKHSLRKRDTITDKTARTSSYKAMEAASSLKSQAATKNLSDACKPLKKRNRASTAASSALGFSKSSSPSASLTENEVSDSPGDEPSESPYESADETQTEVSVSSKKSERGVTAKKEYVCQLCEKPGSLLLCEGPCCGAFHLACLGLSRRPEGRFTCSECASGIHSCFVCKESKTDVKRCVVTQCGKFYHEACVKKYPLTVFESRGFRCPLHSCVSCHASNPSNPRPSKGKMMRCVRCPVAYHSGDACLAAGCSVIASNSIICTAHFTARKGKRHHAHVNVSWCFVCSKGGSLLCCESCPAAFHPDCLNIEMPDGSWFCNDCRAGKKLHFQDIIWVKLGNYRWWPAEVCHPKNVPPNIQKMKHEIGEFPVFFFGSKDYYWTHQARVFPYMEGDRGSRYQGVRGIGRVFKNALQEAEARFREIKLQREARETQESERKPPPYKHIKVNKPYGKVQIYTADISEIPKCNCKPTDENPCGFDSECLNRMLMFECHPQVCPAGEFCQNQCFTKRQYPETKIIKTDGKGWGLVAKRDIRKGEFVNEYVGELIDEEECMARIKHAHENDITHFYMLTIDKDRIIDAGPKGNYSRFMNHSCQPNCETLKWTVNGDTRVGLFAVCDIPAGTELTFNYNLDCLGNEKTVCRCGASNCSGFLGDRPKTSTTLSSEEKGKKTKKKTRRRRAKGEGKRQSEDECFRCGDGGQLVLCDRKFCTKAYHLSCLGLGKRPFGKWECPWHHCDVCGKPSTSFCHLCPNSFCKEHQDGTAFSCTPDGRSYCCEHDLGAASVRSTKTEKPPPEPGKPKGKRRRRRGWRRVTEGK

[2] = target: Mitogen-activated protein kinase 10 (Homo sapiens, UniProt P53779); assay: Dose response biochemical screening assay for inhibitors of c-Jun N-Terminal Kinase 3 (JNK3). [Related pubchem assays: 746 ]
Chain of Mitogen-activated protein kinase 10 (P53779 whole entry): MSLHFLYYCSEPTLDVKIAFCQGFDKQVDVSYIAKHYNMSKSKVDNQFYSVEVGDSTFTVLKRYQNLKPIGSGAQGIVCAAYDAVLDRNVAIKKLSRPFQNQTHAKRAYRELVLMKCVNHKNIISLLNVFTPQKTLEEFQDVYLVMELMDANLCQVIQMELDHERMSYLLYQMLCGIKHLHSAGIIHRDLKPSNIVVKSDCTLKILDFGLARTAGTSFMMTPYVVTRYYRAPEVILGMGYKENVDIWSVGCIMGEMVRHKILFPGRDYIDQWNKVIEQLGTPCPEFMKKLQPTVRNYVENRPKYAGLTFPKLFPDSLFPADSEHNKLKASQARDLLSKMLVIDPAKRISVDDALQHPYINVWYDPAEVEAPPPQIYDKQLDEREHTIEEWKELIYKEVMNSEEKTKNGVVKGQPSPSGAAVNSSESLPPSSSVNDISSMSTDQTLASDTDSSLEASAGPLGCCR

[3] = target: T2, E3 ubiquitin-protein ligase XIAP (Homo sapiens, UniProt P98170); assay: Counter Screen using XIAP-Bir3 for Chemical Antagonists of Bir1/2 domains of IAP-family anti-apoptotic proteins. [Related pubchem assays (depositor defined):AID1018, AID1449, AID1514, AID1638, AID1749, AID1750, AID488957, AID488963]
T2 sequence (P98170 whole entry): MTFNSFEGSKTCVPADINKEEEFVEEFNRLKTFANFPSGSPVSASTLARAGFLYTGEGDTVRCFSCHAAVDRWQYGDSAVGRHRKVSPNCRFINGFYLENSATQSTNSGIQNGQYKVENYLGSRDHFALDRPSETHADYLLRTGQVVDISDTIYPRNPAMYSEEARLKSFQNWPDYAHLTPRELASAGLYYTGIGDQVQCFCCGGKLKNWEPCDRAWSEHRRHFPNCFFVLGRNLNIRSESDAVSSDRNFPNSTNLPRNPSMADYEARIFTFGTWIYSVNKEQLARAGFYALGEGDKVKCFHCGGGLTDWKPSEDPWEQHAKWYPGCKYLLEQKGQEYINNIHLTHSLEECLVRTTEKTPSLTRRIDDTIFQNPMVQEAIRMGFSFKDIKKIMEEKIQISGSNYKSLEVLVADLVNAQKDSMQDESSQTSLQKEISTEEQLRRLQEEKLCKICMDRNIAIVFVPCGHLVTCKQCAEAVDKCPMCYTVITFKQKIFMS

[4] = target: T2, E3 ubiquitin-protein ligase XIAP; assay: XIAP antagonists, biochemical, IAP family, fluorescence polarization (AID 1018); type: functional
[5] = target: E3 ubiquitin-protein ligase Mdm2 (Homo sapiens, UniProt Q00987); assay: enhancers of MDM2-luciferase reporter signal, concentration-effect titration, project on inhibitors of MDM2 ubiquitin ligase, cellular assay, luminescent readout, 384-well plate format (AID 1394); type: functional;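 further: MDM2 E3 inhibitors raise luminescence so EC50 is for signal enhancement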
Chain of E3 ubiquitin-protein ligase Mdm2 (Q00987 whole entry): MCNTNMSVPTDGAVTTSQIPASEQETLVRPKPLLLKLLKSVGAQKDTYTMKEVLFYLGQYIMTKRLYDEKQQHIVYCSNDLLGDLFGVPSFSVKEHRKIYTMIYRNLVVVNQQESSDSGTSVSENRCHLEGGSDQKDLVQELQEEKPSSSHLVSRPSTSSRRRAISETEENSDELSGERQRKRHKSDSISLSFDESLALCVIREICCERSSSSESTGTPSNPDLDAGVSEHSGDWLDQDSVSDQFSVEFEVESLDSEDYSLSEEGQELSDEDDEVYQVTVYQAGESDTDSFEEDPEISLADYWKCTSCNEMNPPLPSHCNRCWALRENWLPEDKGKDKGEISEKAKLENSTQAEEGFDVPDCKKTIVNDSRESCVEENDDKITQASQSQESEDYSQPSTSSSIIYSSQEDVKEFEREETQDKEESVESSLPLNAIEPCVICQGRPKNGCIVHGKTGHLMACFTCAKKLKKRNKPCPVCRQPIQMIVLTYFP

[6] = M. tuberculosis H37Rv growth inhibitors, H37Rv strain (AID 1626); type: functional
[7] = target: T3, Heat shock factor protein 1 (Mus musculus, UniProt P38532); assay: HSF1 potentiators in luciferase reporter cells, confirmation, cell-based, NIH3T3, luminescence, dose retest (AID 435004); type: functional;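 further: stress induced by proteasome inhibitor MG132 added 30 min after compound; luciferase reporter driven by HSF1 response element in NIH3T3 cells; actives raise luminescence as potentiators of the MG132 stress response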
T3 sequence (P38532 whole entry): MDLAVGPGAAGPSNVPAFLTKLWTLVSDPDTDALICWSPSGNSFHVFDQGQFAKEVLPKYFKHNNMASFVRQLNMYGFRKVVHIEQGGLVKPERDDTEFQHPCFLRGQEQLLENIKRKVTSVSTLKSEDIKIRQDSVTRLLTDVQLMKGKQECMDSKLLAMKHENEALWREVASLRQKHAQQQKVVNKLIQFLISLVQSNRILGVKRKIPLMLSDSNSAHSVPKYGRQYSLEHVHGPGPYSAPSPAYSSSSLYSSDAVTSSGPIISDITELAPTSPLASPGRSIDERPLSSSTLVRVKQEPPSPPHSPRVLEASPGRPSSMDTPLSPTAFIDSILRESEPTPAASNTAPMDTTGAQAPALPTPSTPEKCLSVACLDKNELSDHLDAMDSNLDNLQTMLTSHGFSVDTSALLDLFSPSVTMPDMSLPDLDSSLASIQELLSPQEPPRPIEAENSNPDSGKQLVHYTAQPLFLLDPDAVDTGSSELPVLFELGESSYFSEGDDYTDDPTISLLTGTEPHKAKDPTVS

[8] = target: T4, Mucolipin-3 (Homo sapiens, UniProt Q8TDD5); assay: Dose response cell-based high-throughput screening assay for agonists of the transient receptor potential channel ML3 (TRPML3). [Related pubchem assays: 1526, 1424, 1448 ]; type: functional
T4 sequence (Q8TDD5 whole entry): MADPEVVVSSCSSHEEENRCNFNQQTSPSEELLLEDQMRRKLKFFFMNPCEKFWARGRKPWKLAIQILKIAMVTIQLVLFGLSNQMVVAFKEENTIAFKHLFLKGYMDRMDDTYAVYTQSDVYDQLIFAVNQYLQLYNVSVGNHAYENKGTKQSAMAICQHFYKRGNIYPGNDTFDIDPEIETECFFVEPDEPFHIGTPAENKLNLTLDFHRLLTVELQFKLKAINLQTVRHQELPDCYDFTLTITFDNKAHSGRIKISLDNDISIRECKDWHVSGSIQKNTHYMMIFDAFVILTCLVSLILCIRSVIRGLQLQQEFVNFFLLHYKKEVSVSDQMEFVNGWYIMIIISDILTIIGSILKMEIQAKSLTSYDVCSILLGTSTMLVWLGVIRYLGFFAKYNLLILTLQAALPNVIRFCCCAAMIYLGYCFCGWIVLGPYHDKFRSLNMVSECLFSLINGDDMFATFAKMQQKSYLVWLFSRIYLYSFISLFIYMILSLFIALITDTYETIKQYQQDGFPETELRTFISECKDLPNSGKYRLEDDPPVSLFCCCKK

[9] = target: Ion channel NompC (Danio rerio, UniProt Q7T1G6); assay: Fluorescence counterscreen assay for TRPML3 agonists: dose response cell-based high-throughput screening assay to identify agonists of the transient receptor potential channel N1 (TRPN1). [Related pubchem assays: 1526, 1424, 1448 ]; type: functional
Chain of Ion channel NompC (Q7T1G6 whole entry): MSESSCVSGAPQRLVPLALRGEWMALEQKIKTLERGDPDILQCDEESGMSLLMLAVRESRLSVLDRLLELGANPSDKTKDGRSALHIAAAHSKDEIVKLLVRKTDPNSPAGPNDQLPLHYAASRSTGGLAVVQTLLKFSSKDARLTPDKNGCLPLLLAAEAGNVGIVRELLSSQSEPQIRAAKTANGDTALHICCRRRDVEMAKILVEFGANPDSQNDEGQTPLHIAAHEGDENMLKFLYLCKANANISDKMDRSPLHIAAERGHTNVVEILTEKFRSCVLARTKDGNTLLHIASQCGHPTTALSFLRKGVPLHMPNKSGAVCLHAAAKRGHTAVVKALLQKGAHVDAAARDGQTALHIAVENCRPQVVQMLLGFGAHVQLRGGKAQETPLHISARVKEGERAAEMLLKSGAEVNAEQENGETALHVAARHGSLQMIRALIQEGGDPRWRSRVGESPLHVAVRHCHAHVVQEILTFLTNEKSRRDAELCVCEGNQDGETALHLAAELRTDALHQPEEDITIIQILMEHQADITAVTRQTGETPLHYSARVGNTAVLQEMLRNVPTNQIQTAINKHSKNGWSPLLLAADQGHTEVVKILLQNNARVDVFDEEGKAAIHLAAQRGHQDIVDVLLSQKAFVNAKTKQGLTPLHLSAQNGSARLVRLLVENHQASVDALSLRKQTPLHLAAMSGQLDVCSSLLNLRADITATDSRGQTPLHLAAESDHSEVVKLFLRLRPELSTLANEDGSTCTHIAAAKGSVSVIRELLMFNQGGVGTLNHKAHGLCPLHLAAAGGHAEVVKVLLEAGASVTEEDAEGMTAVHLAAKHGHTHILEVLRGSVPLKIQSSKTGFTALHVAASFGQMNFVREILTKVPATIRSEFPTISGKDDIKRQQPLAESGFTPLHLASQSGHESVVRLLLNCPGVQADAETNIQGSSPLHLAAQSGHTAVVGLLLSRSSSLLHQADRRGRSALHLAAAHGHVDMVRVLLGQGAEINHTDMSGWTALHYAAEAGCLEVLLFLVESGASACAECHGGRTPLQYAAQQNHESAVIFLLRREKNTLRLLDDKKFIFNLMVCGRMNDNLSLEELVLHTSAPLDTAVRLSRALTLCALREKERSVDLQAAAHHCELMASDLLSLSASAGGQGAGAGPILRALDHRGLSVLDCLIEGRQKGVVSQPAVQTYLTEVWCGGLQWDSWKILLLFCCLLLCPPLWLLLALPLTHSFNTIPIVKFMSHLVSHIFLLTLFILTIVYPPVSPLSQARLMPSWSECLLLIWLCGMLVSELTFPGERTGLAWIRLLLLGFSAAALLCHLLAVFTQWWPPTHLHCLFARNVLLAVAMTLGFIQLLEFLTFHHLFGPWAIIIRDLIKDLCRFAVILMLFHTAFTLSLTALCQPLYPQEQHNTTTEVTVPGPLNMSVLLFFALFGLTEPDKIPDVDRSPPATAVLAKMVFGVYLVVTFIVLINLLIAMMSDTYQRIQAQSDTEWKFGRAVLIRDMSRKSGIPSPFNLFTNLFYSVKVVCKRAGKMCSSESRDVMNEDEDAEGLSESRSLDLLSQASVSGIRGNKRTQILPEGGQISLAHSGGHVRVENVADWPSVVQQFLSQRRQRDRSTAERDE

[10] = target: T5, Endoribonuclease toxin MazF (Escherichia coli K-12, UniProt P0AE70); assay: fluorescent RNA oligo signal without MazF, dose response, counter-screen for MazEF activator project, biochemical, fluorescence, single-stranded RNase substrate (AID 588502); type: functional
T5 sequence (P0AE70 whole entry): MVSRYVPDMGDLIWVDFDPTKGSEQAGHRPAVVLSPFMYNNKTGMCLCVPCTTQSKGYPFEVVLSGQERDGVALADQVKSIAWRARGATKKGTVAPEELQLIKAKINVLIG

[11] = target: T5, Endoribonuclease toxin MazF; assay: MazF toxin RNase activators, dose response, biochemical, fluorescence, single-stranded RNA substrate, uHTS hits (AID 588481); type: functional
[12] = target: T6, Mannose-6-phosphate isomerase (Homo sapiens, UniProt P34949); assay: human PMI inhibitors, high substrate, primary screen, biochemical, fluorescence intensity, high mannose 6-phosphate (AID 1220)
T6 sequence (P34949 whole entry): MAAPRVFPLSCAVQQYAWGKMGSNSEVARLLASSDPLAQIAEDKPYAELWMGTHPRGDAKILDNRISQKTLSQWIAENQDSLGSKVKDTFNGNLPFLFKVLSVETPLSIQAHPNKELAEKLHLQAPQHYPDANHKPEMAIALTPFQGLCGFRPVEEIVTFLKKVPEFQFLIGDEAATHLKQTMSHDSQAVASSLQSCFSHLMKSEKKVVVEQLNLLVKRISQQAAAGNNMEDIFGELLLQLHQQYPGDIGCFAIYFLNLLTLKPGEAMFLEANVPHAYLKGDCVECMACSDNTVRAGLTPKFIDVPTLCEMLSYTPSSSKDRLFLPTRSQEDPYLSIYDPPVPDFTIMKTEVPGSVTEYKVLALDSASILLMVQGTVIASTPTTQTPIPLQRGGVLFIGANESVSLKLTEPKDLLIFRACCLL

[13] = target: T7, COUP transcription factor 2 (Homo sapiens, UniProt P24468); assay: Luminescence-based cell-based high throughput dose response assay to identify inhibitors of COUP-TFII (NR2F2).; type: functional;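 further: HEK293 cells transiently cotransfected with COUP-TFII expression vector and reporter; luciferase reporter luminescence driven by COUP-TFII from the pX2-168 reporter plasmid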
T7 sequence (P24468 whole entry): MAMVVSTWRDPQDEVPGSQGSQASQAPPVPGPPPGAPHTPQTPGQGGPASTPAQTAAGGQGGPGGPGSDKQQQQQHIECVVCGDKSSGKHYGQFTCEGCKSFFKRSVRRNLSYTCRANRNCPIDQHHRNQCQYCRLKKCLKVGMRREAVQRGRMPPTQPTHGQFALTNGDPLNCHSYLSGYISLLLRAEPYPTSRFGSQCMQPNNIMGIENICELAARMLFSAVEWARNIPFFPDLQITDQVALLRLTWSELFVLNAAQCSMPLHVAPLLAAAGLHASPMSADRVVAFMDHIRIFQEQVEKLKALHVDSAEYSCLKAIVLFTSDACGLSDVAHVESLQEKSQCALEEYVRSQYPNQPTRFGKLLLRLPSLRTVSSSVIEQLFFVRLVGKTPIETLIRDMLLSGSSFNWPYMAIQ

[14] = target: Cytochrome P450 2C9 (Homo sapiens, UniProt P11712)
Chain of Cytochrome P450 2C9 (P11712 whole entry): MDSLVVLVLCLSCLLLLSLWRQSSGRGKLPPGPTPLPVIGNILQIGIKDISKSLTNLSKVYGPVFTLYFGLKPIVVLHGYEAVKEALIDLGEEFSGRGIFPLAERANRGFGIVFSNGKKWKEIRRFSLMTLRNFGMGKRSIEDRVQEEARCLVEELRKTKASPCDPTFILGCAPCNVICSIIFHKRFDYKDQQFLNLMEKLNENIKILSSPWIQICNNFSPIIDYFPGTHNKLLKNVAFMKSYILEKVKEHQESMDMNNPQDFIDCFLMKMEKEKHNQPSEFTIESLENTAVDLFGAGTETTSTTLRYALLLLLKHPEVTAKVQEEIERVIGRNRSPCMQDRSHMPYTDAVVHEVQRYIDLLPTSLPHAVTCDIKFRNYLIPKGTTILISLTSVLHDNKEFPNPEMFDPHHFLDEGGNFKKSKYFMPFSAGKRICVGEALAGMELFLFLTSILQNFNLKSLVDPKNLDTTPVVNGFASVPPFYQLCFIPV

[15] = P. falciparum Dd2 growth inhibitors, dose response, SYBR Green, cherry-picked samples (AID 1159567); type: functional, cell-based
[16] = P. falciparum Dd2 growth inhibitors, dose response, SYBR Green, dry powder samples, set 9 (AID 1159568); type: functional, cell-based
[17] = HepG2 cell cytotoxicity, dose response, cytotoxicity control, cherry-picked samples (AID 1159577); type: functional, cell-based
[18] = Luminescence Cell-Based Dose Response HTS to Identify Activators of Luciferase Translation or Activity in H4 […] Cells. [Related pubchem assays: 1829 (Project Summary), 1814 (Primary HTS)]; type: functional
[19] = tested on: H4; assay: Luminescence Cell-Based Dose Response HTS to Identify Activators of 5'UTR Stem-Loop Driven Prion Protein mRNA Translation in H4 Neuroglioblastoma Cells. [Related pubchem assays: 1829 (Project Summary), 1814 (Primary HTS)]; type: functional; settings: Homo sapiens
[20] = Luminescence Cell-Based Dose Confirmation HTS to Identify Activators of 5'UTR Stem-Loop Driven Alpha-Synuclein mRNA Translation in H4 Neuroglioblastoma Cells. [Related pubchem assays: 1829 (Project Summary), 1814 (Primary HTS)]; type: functional
[21] = target: FAD-linked sulfhydryl oxidase ALR (Homo sapiens, UniProt P55789); assay: inhibitors of human ALR sulfhydryl oxidase, dose response, biochemical, H2O2 detection, luminescence, cherry-pick (AID 493248)
Chain of FAD-linked sulfhydryl oxidase ALR (P55789 whole entry): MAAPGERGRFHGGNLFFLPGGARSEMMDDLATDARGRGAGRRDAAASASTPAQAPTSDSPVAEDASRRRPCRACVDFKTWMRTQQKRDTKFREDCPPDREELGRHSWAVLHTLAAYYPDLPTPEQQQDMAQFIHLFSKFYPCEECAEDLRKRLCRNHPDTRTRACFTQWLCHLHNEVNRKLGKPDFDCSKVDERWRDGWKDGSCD

## CNCc1ccccc1Sc1cccc(O)c1
[1]
  AC50: > 20 µM (inactive)

## CN1C=CC(=C2C(=O)c3ccccc3C2=O)C=C1
[2]
  IC50: 28.5 µM (not active)

## CCOC(=O)c1[nH]nc2ccccc12
[2]
  IC50: > 31 µM (not active)

## N#C/C(=C\c1ccc(-c2ccc(C(=O)O)cc2)o1)C(=O)NCC1CCCO1 (stereo not given)
[1]
  AC50: > 20 µM (inactive)

## CCSc1nnc(NC(=O)c2cc(-c3ccc(C)c(C)c3O)[nH]n2)s1
[3]
  IC50: > 100 µM (inactive)
[4]
  IC50: > 100 µM (not active)

## O=C(Nc1ccc(-c2csnn2)cc1)C1CC1
[5]
  EC50: 3.55 µM (not active)
[6]
  IC50: > 100 µM (active)

## Nc1cnn(Cc2ccc(F)cc2)c1
[6]
  IC50: > 100 µM (active)
[7]
  EC50: > 260 µM (inactive)

## CC(SCc1ccccc1)C(=O)NCc1ccccn1 (stereo not given)
[3]
  IC50: > 100 µM (inactive)
[4]
  IC50: > 100 µM (not active)

## COc1ccc(C(=O)Nc2ccc(S(=O)(=O)N3CCCCC3C)cc2)c(OC)c1OC (stereo not given)
[8]
  EC50: 1.78 µM (active)
[9]
  EC50: > 29.9 µM (not active)

## Cc1cc(NC(=O)Cc2csc(-c3ccccc3)n2)ccc1Br
[3]
  IC50: > 100 µM (inactive)
[4]
  IC50: > 100 µM (not active)

## CCN(CC)CCCN(Cc1cc2cc3c(cc2nc1O)OCO3)C(S)=NCc1ccco1
[1]
  AC50: > 20 µM (inactive)

## CCN1C(=O)C(=Cc2cc(C)n(C3CC3)c2C)C(=O)N(CC)C1=S
[10]
  EC50: > 99 µM (inactive)
[11]
  EC50: 44.4 µM (inactive)
[12]
  IC50: > 50 µM (not active)

## CC(C)N(C(=O)Nc1ccc2nccnc2c1)C(C)C
[12]
  IC50: > 50 µM (not active)

## COc1ccccc1OCC(=O)Nc1cc(S(=O)(=O)N2CCCCC2)ccc1N1CCCCC1
[5]
  EC50: 6.4 µM (not active)

## O=c1c2ccccc2oc2cc(C#CC3(O)CCCCC3)ccc12
[13]
  IC50: > 9.49 µM (active)

## Oc1[nH]c2ccccc2c1/C=N/c1nccs1
[14]
  AC50: 25.1 µM (inconclusive)
[2]
  IC50: 46.6 µM (not active)

## N#Cc1ccc(-c2ccc([C@@H]3[C@@H]4CN(C(=O)Nc5ccc6c(c5)OCO6)C[C@H]3N4)cc2)cc1
[15]
  AC50: 3.41 µM (active)
[16]
  AC50: 6.54 µM (active)

## COc1cccc(-c2ccc3c(c2)[C@@H]2[C@@H](CCN2C(=O)NC2CCCCC2)[C@@H](CO)N3C)c1
[15]
  AC50: 2.88 µM (active)
[17]
  AC50: 41.4 µM (active)

## C[C@@H]1CCCCO[C@@H](CN(C)Cc2ccc(Cl)c(Cl)c2)[C@@H](C)CN([C@@H](C)CO)C(=O)c2cc(NS(=O)(=O)c3cccs3)ccc2O1
[16]
  AC50: 1.54 µM (active)

## C[n+]1c2n(c3ccccc31)N=C(c1ccccc1)CS2
[18]
  EC50: > 120 µM (not active)
[13]
  IC50: 13.8 µM (inactive)
[19]
  EC50: > 120 µM (not active)
[20]
  EC50: 16 µM (active)
[21]
  AC50: 1.14 µM (active)
